The test system of one assay is plasma corticosterone. Put plainly: In vivo suppression of plasma corticosterone levels in ACTH-stimulated rats. More on the design: species or system Wistar rats. As to conditions: 4 mg/kg p.o.; plasma level 2 h after administration relative to 1 h prior to administration. On the procedure:
(§1) The aldosterone- and corticosterone-suppressing activity of herein described compounds may be assessed with the following in vivo protocol.
(§2) Adult male Wistar rats weighing between 250 and 350 grams are kept under the usual 12 hour light and 12 hour dark conditions at a temperature of 23° C.±2° C. On the first day of the experiment, the animals receive a subcutaneous injection of a depot ACTH product in a dose of 1.0 mg/kg weight (SYNACTHEN-Depot, Novartis, Basel, CH) 16 hours prior to the administration of a test compound. […] An alternative method to stimulate aldosterone secretion consists in subjecting rats to a low salt diet for 48 hours and applying the diuretic furosemide at 10 mg/kg by subcutaneous or intraperitoneal administration 16 hours, respectively 2 hours prior to the start of the experiment. […] The aldosterone and corticosterone concentrations of the plasma samples can be determined with a radioimmunoassay as described above for the in vitro test systems.
(§3) The selective suppression of plasma steroid levels as for instance aldosterone in comparison to corticosterone may serve as a measure for in vivo bioavailability and pharmacodynamic enzyme inhibitory activity of the herein described compounds. The evaluation of the data may occur relative to the application of vehicle or quantitatively by determination of the area under the curve (AUC). […]

The test system of another assay is plasma aldosterone. The assay can be described thus: In vivo suppression of plasma aldosterone levels in ACTH-stimulated rats. More on the design: species or system Wistar rats. The settings on record: 4 mg/kg p.o.; plasma level 2 h after administration relative to 1 h prior to administration. On the procedure: as §1, §2, §3

Consider 1 molecule from patent US8138179B2, “Spiro-imidazo compounds” (Novartis AG, priority 2006, dated 2012).

For the molecule `N#Cc1ccc2c(c1)C1(CCC2)OCCn2cncc21` (centres unmarked) [Example 10, spiro-[(5,6-Dihydro-8H-imidazo[5,1-c][1,4]oxazine)-8,8′-(5′,6′,7′,8′-tetrahydronaphthalene-2′-carbonitrile)]], the “Corticosterone levels (% change at 2 h)” value with plasma corticosterone is −14.5%. The “Aldosterone levels (% change at 2 h)” value with plasma aldosterone was −81.7%.
